Experiment: Release of benzoic acid from pie-shaped-compartment dosage form, UV 226 nm
Assay type: physicochemical
Conditions: PEG8000 flat tablet with pie shaped compartment; pH 8 Na2HPO4 solution, 37° C., 100 rpm; FIG. 18C
Description: The release profile of the benzoic acid from the dosage form was measured as the following method. Na2HPO4 solution of pH 8 was prepared as dissolvent of benzoic acid. Benzoic acid solution of 120 μg/mL was serially diluted to 30 μg/mL, 15 μg/m, 7.5 μg/m, 3.75 μg/mL, and 1.875 μg/mL solutions, whose absorbance at 226 nm was measured using a UV spectrophotometer. The numbers obtained were treated with linear regression to generate a standard curve of benzoic acid concentration with the formula y=0.0599x+0.0347. To measure the released amount of benzoic acid, the dosage form was dissolved in degassed pH 8 Na2HPO4 solution at 37° C.±0.5° C. and […] at 100 rpm. 5 mL solution was collected from the solution at each time point to measure the concentration of benzoic acid with 5 mL dissolvent added back to the solution. The collected solution was filtered through 0.45 um membrane before transferred to an UV spectrophotometer for measuring the absorbance at 226 nm. The percentage of benzoic acid released was calculated using the following formula: […]
Wherein Cn means concentrate measured, Vtmeans total solution volume,
Vs means sample volume, Qbenzoic acid means amout of benzoic acid in the dosage form

O=C(O)c1ccccc1 [benzoic acid, Benzoic acid]
release profile of the benzoic acid: matches a model profile

Source: patent US11278499B2, “Oral drug dosage form comprising various release profiles” (Triastek, Inc., priority 2015, dated 2022)
